We go through twelve compounds from patent publication US20240116985A1, “STAPLED PEPTIDES AND METHODS THEREOF” (priority 2020, published 2024).

Like-named read-outs stand apart in the source and are kept apart here.

The experiment deals with T1, full-length beta-Catenin (Uniprot ID P35222) (Homo sapiens, UniProt P35222).
T1 construct: 10 nM full-length beta-Catenin (Uniprot ID P35222)
T1 sequence (P35222 1-781): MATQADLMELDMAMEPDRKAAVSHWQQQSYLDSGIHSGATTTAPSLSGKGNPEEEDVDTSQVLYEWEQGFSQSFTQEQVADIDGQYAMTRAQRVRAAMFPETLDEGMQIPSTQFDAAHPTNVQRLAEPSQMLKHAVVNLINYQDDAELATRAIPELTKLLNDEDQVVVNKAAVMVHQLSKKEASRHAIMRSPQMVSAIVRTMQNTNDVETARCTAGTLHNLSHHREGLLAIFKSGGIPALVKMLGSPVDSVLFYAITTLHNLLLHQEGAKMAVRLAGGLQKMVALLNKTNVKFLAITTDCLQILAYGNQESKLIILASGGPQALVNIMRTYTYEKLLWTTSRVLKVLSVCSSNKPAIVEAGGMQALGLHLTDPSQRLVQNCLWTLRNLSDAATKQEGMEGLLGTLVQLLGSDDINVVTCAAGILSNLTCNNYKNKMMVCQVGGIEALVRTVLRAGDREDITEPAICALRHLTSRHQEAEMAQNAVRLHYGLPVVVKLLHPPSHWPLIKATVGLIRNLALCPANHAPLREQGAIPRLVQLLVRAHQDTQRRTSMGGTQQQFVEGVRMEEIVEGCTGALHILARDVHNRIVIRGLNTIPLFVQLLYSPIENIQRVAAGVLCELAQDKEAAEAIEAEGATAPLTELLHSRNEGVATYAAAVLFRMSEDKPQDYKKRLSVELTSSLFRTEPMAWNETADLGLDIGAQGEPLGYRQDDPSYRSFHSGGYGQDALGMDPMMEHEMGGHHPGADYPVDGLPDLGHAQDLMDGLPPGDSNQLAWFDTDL
The experiment is described as follows: Fluorescence polarization IC50 (beta-catenin / 5FAM-TCF4 10-53 competition). It counts as binding.

Where [1] appears, read: fluorescence polarization, read-out: beta-Catenin FP IC50.
The mark [2] stands for this setting: beta-Catenin FP IC50, fluorescence polarization.
Where [3] appears, read: fluorescence polarization, beta-catenin, read-out: FP EC50.

Regarding `CCCCCCCC(=O)N1CCC[C@]12CC=CCCCC1(CCCC=CCCCOC(=O)N3CC[C@@](C(=O)N[C@@H](Cc4ccccc4)C(=O)N[C@@H](Cc4csc5ccccc45)C(=O)N[C@@H](CO)C(N)=O)(C3)NC(=O)[C@H](CO)NC(=O)[C@H](Cc3ccccc3)NC(=O)[C@H](C)NC(=O)[C@H](C)NC(=O)[C@H](CC(=O)O)NC(=O)[C@H](CC(=O)O)NC1=O)NC(=O)[C@H](CC(C)(C)C)NC(=O)[C@H](CC(=O)O)NC2=O` (stereo partly drawn) [I-1355, Oct-PL3-Asp-Npg-B5-Asp-Asp-Ala-Ala-Phe-Ser-PyrS2-Phe-BztA-Ser-NH2], the IC50 under setting [1] was 213 nM.
As to `CC(=O)N1CCC[C@]12CC=CCCCC1(CCCC=CCCCCCC[C@@](C)(C(=O)N[C@@H](Cc3ccsc3)C(=O)N[C@@H](Cc3csc4ccccc34)C(=O)N[C@H](CO)[C@@H](C)O)NC(=O)[C@H](CCO)NC(=O)[C@H](Cc3ccccc3)NC(=O)[C@H](C)NC(=O)[C@H](C)NC(=O)[C@H](CC(=O)O)NC(=O)[C@H](CC(=O)O)NC1=O)NC(=O)[C@H](CC(C)(C)C)NC(=O)[C@H](CC(=O)O)NC2=O` (stereo partly drawn) [I-1390, Ac-PL3-Asp-Npg-B5-Asp-Asp-Ala-Ala-Phe-Hse-S8-3Thi-BztA-Thro1], under setting [1], the IC50 turned out to be 16 nM.
On to `CC(=O)N1CCC[C@]12CC=CCCCC1(CCCC=CCCCCCC[C@@](C)(C(=O)N[C@@H](Cc3ccccc3C(F)(F)F)C(=O)N[C@@H](Cc3csc4ccccc34)C(=O)N[C@H](CO)[C@@H](C)O)NC(=O)[C@H](CCO)NC(=O)[C@H](Cc3ccccc3)NC(=O)[C@H](C)NC(=O)[C@H](C)NC(=O)[C@H](CC(=O)O)NC(=O)[C@H](CC(=O)O)NC1=O)NC(=O)[C@H](CC(C)(C)C)NC(=O)[C@H](CC(=O)O)NC2=O` (stereo partly drawn) [I-1398, Ac-PL3-Asp-Npg-B5-Asp-Asp-Ala-Ala-Phe-Hse-S8-2F3MeF-BztA-Thro1], for which, under setting [1], the IC50 was 73 nM.
Consider `CC(=O)N1CCC[C@]12CC=CCCCC1(CCCC=CCCCOC(=O)N3CC[C@@](C(=O)N[C@@H](Cc4ccccc4)C(=O)N[C@@H](Cc4csc5ccccc45)C(=O)N[C@@H](CCC(N)=O)C(N)=O)(C3)NC(=O)[C@H](CC(C)C)NC(=O)[C@H](Cc3ccccc3)NC(=O)[C@H](C)NC(=O)[C@H](C)NC(=O)[C@H](CC(=O)O)NC(=O)[C@H](CC(=O)O)NC1=O)NC(=O)[C@H](CC(C)C)NC(=O)[C@H](CC(=O)O)NC2=O` (stereo partly drawn) [I-1402, Ac-PL3-Asp-Leu-B5-Asp-Asp-Ala-Ala-Phe-Leu-PyrS2-Phe-BztA-Gln-NH2], for which the IC50 under setting [1] was 9 nM.
In the case of `CC(=O)N1CCC[C@]12CC=CCCCC1(CCCC=CCCCOC(=O)N3CC[C@@](C(=O)N[C@@H](Cc4ccsc4)C(=O)N[C@@H](Cc4csc5ccccc45)C(=O)N[C@@H](CC(C)C)C(N)=O)(C3)NC(=O)[C@H](CC(C)C)NC(=O)[C@H](Cc3ccccc3)NC(=O)[C@H](C)NC(=O)[C@H](C)NC(=O)[C@H](CC(=O)O)NC(=O)[C@H](CC(=O)O)NC1=O)NC(=O)[C@H](CC(N)=O)NC(=O)[C@H](CC(=O)O)NC2=O` (stereo partly drawn) [I-1413, Ac-PL3-Asp-Asn-B5-Asp-Asp-Ala-Ala-Phe-Leu-PyrS2-3Thi-BztA-Leu-NH2], the IC50 under setting [2] turned out to be 74 nM.
On the same count and under the same terms, the result for `CC(=O)N1CCC[C@]12CC=CCCCC1(CCCC=CCCCOC(=O)N3CC[C@@](C(=O)N[C@@H](Cc4ccsc4)C(=O)N[C@@H](Cc4csc5ccccc45)C(=O)N[C@@H](CC(C)C)C(N)=O)(C3)NC(=O)[C@H](CC(C)C)NC(=O)[C@H](Cc3ccccc3)NC(=O)[C@H](C)NC(=O)[C@H](C)NC(=O)[C@H](CC(=O)O)NC(=O)[C@H](CC(=O)O)NC1=O)NC(=O)[C@H]([C@@H](C)O)NC(=O)[C@H](CC(=O)O)NC2=O` (stereo partly drawn) [I-1415, Ac-PL3-Asp-Thr-B5-Asp-Asp-Ala-Ala-Phe-Leu-PyrS2-3Thi-BztA-Leu-NH2] reads 72 nM.
Take `CC(=O)N1CCC[C@]12CC=CCCCC1(CCCC=CCCCOC(=O)N3CC[C@@](C(=O)N[C@@H](Cc4ccccc4Cl)C(=O)N[C@@H](Cc4csc5ccccc45)C(=O)N[C@@H](CC(C)C)C(N)=O)(C3)NC(=O)[C@H](CC(C)C)NC(=O)[C@H](Cc3ccccc3)NC(=O)[C@H](C)NC(=O)[C@H](C)NC(=O)[C@H](CC(=O)O)NC(=O)[C@H](CC(=O)O)NC1=O)NC(=O)[C@H](CC(C)(C)C)NC(=O)[C@H](CC(=O)O)NC2=O` (stereo partly drawn) [I-1416, Ac-PL3-Asp-Npg-B5-Asp-Asp-Ala-Ala-Phe-Leu-PyrS2-2C1F-BztA-Leu-NH2]: the IC50 reads like this: under setting [3], 57 nM; under setting [1], 57 nM.
For `CC(=O)N1CCC[C@]12CC=CCCCC1(CCCC=CCCCOC(=O)N3CC[C@@](C(=O)N[C@@H](Cc4ccccc4Cl)C(=O)N[C@@H](Cc4csc5ccccc45)C(=O)N[C@@H](CC(C)C)C(N)=O)(C3)NC(=O)[C@H](CC(C)C)NC(=O)[C@H](Cc3ccccc3)NC(=O)[C@H](C)NC(=O)[C@H](C)NC(=O)[C@H](CC(=O)O)NC(=O)[C@H](CC(=O)O)NC1=O)NC(=O)[C@H](CC(C)(C)C)NC(=O)[C@H](CC(=O)O)NC2=O` (stereo partly drawn) [I-1417, Ac-PL3-Asp-Npg-B5-Asp-Asp-Ala-Ala-Phe-Leu-PyrS2-2C1F-BztA-Leu-NH2], the IC50 by setting is: under setting [3], 198 nM; under setting [1], 198 nM.
For `CC(=O)N1CCC[C@]12CC=CCCCC1(CCCC=CCCCOC(=O)N3CC[C@@](C(=O)N[C@@H](Cc4ccccc4Cl)C(=O)N[C@@H](Cc4csc5ccccc45)C(=O)N[C@@H](CC(C)C)C(N)=O)(C3)NC(=O)[C@H](CC(C)C)NC(=O)[C@H](Cc3ccccc3)NC(=O)[C@H](C)NC(=O)[C@H](C)NC(=O)[C@H](CC(=O)O)NC(=O)[C@H](CC(=O)O)NC1=O)NC(=O)[C@H](CC(C)C)NC(=O)[C@H](CC(=O)O)NC2=O` (stereo partly drawn) [I-1419, Ac-PL3-Asp-Leu-B5-Asp-Asp-Ala-Ala-Phe-Leu-PyrS2-2C1F-BztA-Leu-NH2], the IC50 under setting [3] worked out at 152 nM and the IC50 under setting [1] came out at 152 nM.
For the compound `CCCC[C@@H]1NC(=O)[C@H](CC(=O)O)NC(=O)[C@]2(CC=CCCCC3(CCCC=CCCCOC(=O)N4CC[C@@](C(=O)N[C@@H](Cc5ccccc5Cl)C(=O)N[C@@H](Cc5csc6ccccc56)C(=O)N[C@@H](CC(C)C)C(N)=O)(C4)NC(=O)[C@H](CC(C)C)NC(=O)[C@H](Cc4ccccc4)NC(=O)[C@H](C)NC(=O)[C@H](C)NC(=O)[C@H](CC(=O)O)NC(=O)[C@H](CC(=O)O)NC3=O)NC1=O)CCCN2C(C)=O` (stereo partly drawn) [I-1420, Ac-PL3-Asp-nLeu-B5-Asp-Asp-Ala-Ala-Phe-Leu-PyrS2-2C1F-BztA-Leu-NH2], the IC50 under setting [3] worked out at 124 nM and the IC50 under setting [1] amounted to 124 nM.
Consider `CCCC[C@@H]1NC(=O)[C@H](CC(=O)O)NC(=O)[C@]2(CC=CCCCC3(CCCC=CCCCOC(=O)N4CC[C@@](C(=O)N[C@@H](Cc5ccccc5Cl)C(=O)N[C@@H](Cc5csc6ccccc56)C(=O)N[C@@H](CC(C)C)C(N)=O)(C4)NC(=O)[C@H](CC(C)C)NC(=O)[C@H](Cc4ccccc4)NC(=O)[C@H](C)NC(=O)[C@H](C)NC(=O)[C@H](CC(=O)O)NC(=O)[C@H](CC(=O)O)NC3=O)NC1=O)CCCN2C(C)=O` (stereo partly drawn) [I-1421, Ac-PL3-Asp-nLeu-B5-Asp-Asp-Ala-Ala-Phe-Leu-PyrS2-2C1F-BztA-Leu-NH2], for which the IC50 reads like this: under setting [3], 134 nM; under setting [1], 134 nM.
For the compound `CC(=O)N1CCC[C@]12CC=CCCCC1(CCCC=CCCCOC(=O)N3CC[C@@](C(=O)N[C@@H](Cc4ccccc4Cl)C(=O)N[C@@H](Cc4csc5ccccc45)C(=O)N[C@@H](CC(C)C)C(N)=O)(C3)NC(=O)[C@H](CC(C)C)NC(=O)[C@H](Cc3ccccc3)NC(=O)[C@H](C)NC(=O)[C@H](C)NC(=O)[C@H](CC(=O)O)NC(=O)[C@H](CC(=O)O)NC1=O)NC(=O)[C@H](CC(N)=O)NC(=O)[C@H](CC(=O)O)NC2=O` (stereo partly drawn) [I-1422, Ac-PL3-Asp-Asn-B5-Asp-Asp-Ala-Ala-Phe-Leu-PyrS2-2C1F-BztA-Leu-NH2], the IC50 under setting [2] stood at 388 nM.
